Laboratory results as given in US20260306460A1, “COMPOSITION FOR REMOVING AND INHIBITING SENESCENT CELLS, AND USES THEREOF” (LIFECEUTIX CO., LTD., priority 2023, published 2026).

How the values were obtained:
[1] = tested on: NaIO3-induced retinal degenerative C57BL6J mice; assay: NaIO3 retinal degeneration in mice (p16 mRNA, outer nuclear layer thickness), Example 29, Table 53; assay type: in vivo, mouse; conditions: daily for 21 days; for Outer nuclear layer thickness: untreated 27.4 (±1.3); for p16 mRNA: untreated 100%
Experimental: Then, retinal degenerative diseases were induced for more than 7 days by intravenous administration of 20 mg/kg of NaIO3, an oxidizing agent that induces retinal pigment epithelial cell death and retinal degeneration. Mice with retinal degenerative diseases were randomly assigned to experimental and control groups. […] The control group received only the solution in the same volume. […] In addition, frozen sections of the other eye tissue were stained with H/E (Hematoxylin/Eosin), and the thickness of the outer nuclear layer (ORL) was observed under an optical microscope. […] The mRNA amount after aging induction was calculated as 100% and compared with the mRNA amount of p16 after treatment with the test compound.

[2] = tested on: bleomycin-induced scleroderma C57BL6J mice; assay: Bleomycin scleroderma in mice (p16, COL1A1 mRNA, dermal thickness), Example 24-2, Table 48; assay type: in vivo, mouse; conditions: daily for 21 days; for p16 mRNA: untreated 100 (±8.8); for Col1a1 mRNA: untreated 100 (±13.2); for Dermal Thickness: untreated 459 (±38.7)
Experimental: Eight-week-old male C57BL6J mice (KRIBB Laboratory Animal Resource Center) were acclimated to the experimental environment for one week. Then, 100 μl of the anticancer drug bleomyxin (1 mg/ml) was administered subcutaneously every other day to induce scleroderma for more than three weeks. Mice with scleroderma were randomly assigned to experimental and control groups. LX-403 was mixed with a 10% ethanol solution of PEG400 and administered orally at a concentration of 25 mg/kg daily for 21 days or administered directly to the skin at a concentration of 1 μM. LX-1801 was mixed with a solution of 4% DMSO, 30% PEG300, and 5% Tween80 in distilled water and administered subcutaneously at a concentration of 0.4 μM daily for 21 days. LX-2001 was mixed in PBS and administered intradermally at a concentration of 2 μM daily for 21 days. LX-2002 was mixed in distilled water with 4% DMSO, 30% PEG300, and 5% Tween80 and administered intradermally at a concentration of 2 μM daily for 21 days. […] LX-2005 was mixed in distilled water with 4% DMSO, 30% PEG300, and 5% Tween80 and administered intradermally at a concentration of 90 μM daily for 21 days. LX-2007 was mixed in distilled water with 4% DMSO, 30% PEG300, and 5% Tween80 and administered intradermally at a concentration of 90 μM daily for 21 days. […] LX-3002 was mixed with distilled water with 4% DMSO, 30% PEG300, 5% tween80 and administered orally at 10 mg/kg daily for 21 days. […] LX-5411 was mixed with 5% PBS and administered orally at 10 mg/kg daily for 21 days or subcutaneously at 3 μM. LX-5701 was mixed with PBS and administered orally at 360 mg/kg daily for 21 days. LX-6807 was mixed in saline and administered intraperitoneally at a concentration of 1 mg/kg daily for 21 days. The control group was administered only the solution in the same volume. After the end of drug administration, mice were sacrificed in the same manner as in Example 7-2 of WO2023-085787 A1, RNA was extracted from skin tissue, and the synthesized cDNA was used to perform and analyze the mRNA amounts of p16 and collagen (COL1A1) by qRT-PCR (quantitative real-time PCR). In addition, to measure the degree of bleomycin-induced skin hardening, skin frozen sections were stained with H/E (Hematoxylin/Eosin), and the thickness of the dermis was observed under an optical microscope.

[3] = tested on: naturally aged C57BL6J mice; assay: Hot plate joint pain test in naturally aged mice, Example 21-12, Table 27; assay type: in vivo, mouse; conditions: hot plate 55° C., untreated aged 6.9 (±1.8)
Experimental: (§1) 22-month-old female C57BL6J mice (KRIBB Laboratory Animal Resource Center) were acclimated to the experimental environment for one week, after which the aged mice were randomly assigned to experimental and control groups. Eight-week-old, non-aged mice served as controls. LX-403 was mixed in a 10% ethanol solution of PEG400 and administered orally at a concentration of 25 mg/kg daily for 21 days, or administered to the skin, joints, or eyes at a concentration of 1 μM. LX-1801 was mixed in distilled water with 4% DMSO, 30% PEG300, and 5% Tween80 and administered to the skin, joints, or eyes at a concentration of 0.4 μM daily for 21 days. LX-2001 was mixed in PBS and administered to the skin, joints, or eyes at a concentration of […] daily for 21 days. LX-2002 was mixed in distilled water with 4% DMSO, 30% PEG300, and 5% Tween80 and administered to the skin, joints, or eyes at a concentration of 2 μM daily for 21 days. […] LX-2005 was mixed in distilled water with 4% DMSO, 30% PEG300, and 5% Tween80 and administered to the skin, joints, or eyes at a concentration of 90 μM daily for 21 days. LX-2007 was mixed in distilled water with 4% DMSO, 30% PEG300, and 5% Tween80 and administered to the skin, joints, or eyes at a concentration of 90 μM daily for 21 days. […] LX-3002 was mixed in distilled water with 4% DMSO, 30% PEG300, and 5% Tween80 and administered orally at a concentration of 10 mg/kg daily for 21 days. […] LX-5411 was mixed in 5% PBS and administered orally at a concentration of 10 mg/kg daily for 21 days or administered to the skin, joints, or eyes at a concentration of 3 μM. LX-5701 was mixed in PBS and administered orally at a concentration of 360 mg/kg daily for 21 days. LX-6807 was mixed in saline and administered intraperitoneally at a concentration of 1 mg/kg daily for 21 days. LX-2101 or LX-2102 was mixed in PBS solution with 5% DMSO and administered intraperitoneally at a concentration of 20 mg/kg or 10 mg/kg, respectively, daily for 21 days. The control group received only the solution in the same volume. After the end of drug administration, the methods described in each example below were performed.
RNA was extracted from joint tissue as described in Example 7-2 of WO2023-085787 A1, and qRT-PCR was performed using the synthesized cDNA. […] To analyze joint pain due to joint aging, hotplate analysis was performed. Specifically, thermal pain thresholds were measured using a hot plate. After acclimating mice to a temperature of 30° C. for 10 minutes, the time required for hind paw licking or jumping responses to occur at 55° C. was measured. To prevent tissue damage, the response was measured for less than 30 seconds, and the average value was used from five measurements.

senescent foreskin cells = assay: Survival of senescent human cells treated with supernatant (secreted fluid) from death-induced cells, Example 13; assay type: cell-based; conditions: Table 8; supernatant from dying senescent cells treated at 30, 90 or 270 μM (as Example 11); senescent treated cells
[4] = tested on: naturally aged C57BL6J mice; assay: Cataract incidence in naturally aged mice, Example 21-15, Table 30; assay type: in vivo, mouse; conditions: orally twice a week, 360 mg/kg, until death, untreated aged 83
Experimental: as §1
Cataracts, which occur with age, are a disease that causes visual impairment due to clouding of the lens and are a major cause of blindness. The mice of Example 21-1 were treated with the test compound mixed in PBS orally twice a week at a concentration of 360 mg/kg. Cataract development was assessed biweekly until death.

Compound | Outer nuclear layer thickness [1] | p16 mRNA [1] | p16 mRNA [2] | Col1a1 mRNA [2] | Dermal Thickness [2] | Response time (s) [3] | Survival (senescent foreskin cells) | Cataract incidence (%) [4] [%]
C=C(C)[C@@H]1CC[C@]2(C(=O)O)CC[C@]3(C)[C@H](CC[C@@H]4[C@@]5(C)CC[C@H](O)C(C)(C)[C@@H]5CC[C@]43C)[C@@H]12 [LX-2005, Betulinic acid] | 30.9 (±3.8) μm | 71 (±4.9) % | 62.8 (±4.6) % | 68.2 (±2.4) % | 432 (±61.7) μm | 4.9 (±1.2) s | 91.6 | 72
CC1(C)C=C2[C@H]3CC[C@@H]4[C@@]5(C)CCC(=O)C(C)(C)[C@@H]5CC[C@@]4(C)[C@]3(C)CC[C@@]2(C(=O)O)CC1 [LX-2007, Moronic acid] | 29.4 (±7.5) μm | 75 (±5.9) % | 75.1 (±3.5) % | 80.5 (±4.0) % | 421 (±83.6) μm | 5.8 (±0.5) s | 95.7 | 80
Tocofersolan [LX-3001] | 34.1 (±2.1) μm | 80 (±2.5) % | 76.1 (±5.5) % | 81.4 (±2.5) % | 421 (±28.4) μm | 6.1 (±0.6) s | 58.7 | 73
